According to patent publication US5512548A, “CETP inhibitor polypeptide, antibodies against the synthetic polypeptide and prophylactic and therapeutic anti-atherosclerosis treatments” (Southwest Foundation for Biomedical Research, priority 1994, dated 1996):

Tested on: CETP
Assay: Cholesteryl ester transfer assay (CE transfer from 3H CE-HDL3 to VLDL+LDL with LPDS as CETP source)
Type: biochemical, baboon (Papio sp.)
Conditions: electroeluted from gels, increasing concentrations, lipoproteins from low HDL1 baboons
Procedure: The CE transfer activity of a sample was assayed by a modification of a procedure described previously (Kushwaha et al, (1986), supra).
Briefly, ^3 H CE-labeled HDL3 containing 50-100 μg of CE from low HDL1 baboons was incubated with VLDL+LDL containing 100-300 μg CE in the presence of LPDS. The acceptor lipoproteins and the LPDS were obtained from low HDL1 baboon plasma (chow diet). In some cases the HDL3 was obtained from high HDL1 baboons maintained on the HCHF diet.
The incubations were carried out at 4° C. (control) and 37° C. for 4-6 hrs, and terminated by placing the samples on ice. The assay mixture was then ultracentrifuged to separate VLDL+LDL having a […], and the radioactivity in the lipoproteins was counted as described previously (Kushwaha et al, (1986), supra). Any difference observed in the radioactivity transferred from HDL to VLDL+LDL at 4° C. and 37° C. was attributed to CETP activity in the LPDS.
Time course experiments gave a linear response up to 7 hrs. Similarly, the CETP activity was linear with increasing LPDS, up to 140 μl LPDS, which was derived from an equivalent volume of plasma. […]
The percent difference between the control experiment and the assay with inhibitor peptide was expressed as the inhibitor activity. […]

Substance: Albumin
- effect on the transfer of CE from HDL to VLDL+LDL (CETP activity): no effect
